Laboratory results: US7851503B2, “Thrombopoetin receptor activator and process for producing the same” (Nissan Chemical Industries, Ltd., priority 2002, dated 2010)

Key:
[1] = test system: UT7/EPO-mpl cells (expressing human TPO receptor (c-mpl)); assay: Cell proliferation assay with WST-8 reagent, TPO-dependent cell line UT7/EPO-mpl; assay type: cell-based; details: 4 days incubation, absorbance at 450 nm
Protocol: Stimulation of Proliferation of a Thrombopoietin (TPO)-Dependent Cell Line (2)
The reactivity of a compound of the present invention, 3-methoxyxanthocillin X dimethyl ether, with thrombopoietin (TPO) receptor was assayed using a human leukemic cell line, UT7/EPO-mpl.
(§1) Cells subcultured in the same manner as in Assay Example 1(1) were washed twice with PBS and suspended in IMDM containing 10% FBS at a cell density of 6×10^4 cells/ml. The cell suspension was transferred to a 96-well tissue culture plate (CORNING) in 100-μl aliquots. Then, 3-methoxyxanthocillin X dimethyl ether dissolved in DMSO was diluted 83-fold with IMDM containing 10% FBS and added to the aforementioned cell suspension in 20-μl aliquots. The suspension was incubated in a CO2 incubator (5% CO2, 37° C.) for 4 days. Cell proliferation was assayed using WST-8 reagent (Kishida Chemical Co., Ltd.) according to instructions by the manufacturer. A 10-μl aliquot of 5 mM WST-8 reagent solution was added to each well of the tissue culture plate, and the plate was incubated at 37° C. for 4 h. The formazan pigment generated was detected by measuring the absorbance at 450 nm with a 96-well microplate reader (Nihon Molecular Devices, Spectramax 190).

UT7/EPO cells [2] = assay: Cell proliferation assay with WST-8 reagent, mother cell line UT7/EPO expressing no TPO receptor; assay type: cell-based, human; details: 4 days incubation, absorbance at 450 nm
Protocol: as §1

[3] = test system: UT7/EPO-mpl cells (expressing human TPO receptor (c-mpl)); assay: Cell proliferation assay by the MTT method, TPO-dependent cell line UT7/EPO-mpl; assay type: cell-based; details: 4 days incubation, absorbance at 550 nm
Protocol: Stimulation of Proliferation of a Thrombopoietin (TPO)-Dependent Cell Line (1)
(§2) The reactivity of a compound of the present invention, xanthocillin X monomethyl ether, with thrombopoietin (TPO) receptor was assayed using a human leukemic cell line, UT7/EPO-mpl. UT7/EPO-mpl is a stable transformed cell line obtained by introducing into human leukemic cell line UT7/EPO a vector that induces expression of human TPO receptor (c-mpl) under control of a cytomegaloviral promoter by the method of Takatoku et al. (J. Biol. Chem., 272:7259-7263 (1997)). […] These two cell lines were subcultured in IMDM (GIBCO) containing 10% fetal bovine serum (FBS; TRACE SCIENTIFIC) using a CO2 incubator (5% CO2, 37° C.).
The subcultured cells described above were washed twice with PBS and suspended in IMDM containing 10% FBS at a cell density of 6×10^4 cells/ml. The cell suspension was transferred to a 96-well tissue culture plate (CORNING) in 100-μl aliquots. Then, xanthocillin X monomethyl ether dissolved in DMSO was diluted 83-fold with IMDM containing 10% FBS and added to the aforementioned cell suspension in 20-μl aliquots. […] The formazan pigment generated was dissolved by adding 150 μl per well of 0.1 M/L HCl/isopropanol solution and the absorbance of the resulting pigment solution was measured at 550 nm with a 96-well microplate reader (BIO-RAD, M450).

UT7/EPO cells [4] = assay: Cell proliferation assay by the MTT method, mother cell line UT7/EPO expressing no TPO receptor; assay type: cell-based, human; details: 4 days incubation, absorbance at 550 nm
Protocol: as §2
The subcultured cells described above were washed twice with PBS and suspended in IMDM containing 10% FBS at a cell density of 6×10^4 cells/ml. The cell suspension was transferred to a 96-well tissue culture plate (CORNING) in 100-μl aliquots. Then, xanthocillin X monomethyl ether dissolved in DMSO was diluted 83-fold with IMDM containing 10% FBS and added to the aforementioned cell suspension in 20-μl aliquots. The suspension was incubated in a CO2 incubator (5% CO2, 37° C.) for 4 days. […] The formazan pigment generated was dissolved by adding 150 μl per well of 0.1 M/L HCl/isopropanol solution and the absorbance of the resulting pigment solution was measured at 550 nm with a 96-well microplate reader (BIO-RAD, M450).

Row | Structure (SMILES) | proliferation of TPO-responsive UT7/EPO-mpl cells (WST assay, FIG. 3) [1] | effect on proliferation of UT7/EPO, the mother cell line (WST assay, FIG. 4) (UT7/EPO cells [2]) | proliferation of TPO-responsive UT7/EPO-mpl cells (MTT assay, FIG. 1) [3] | effect on proliferation of UT7/EPO, the mother cell line (MTT assay, FIG. 2) (UT7/EPO cells [4])
1 | [C-]#[N+]C(=Cc1ccc(OC)cc1)C(=Cc1ccc(OC)c(OC)c1)[N+]#[C-] [3-methoxyxanthocillin X dimethyl ether] | stimulated | no effect | – | –
2 | [C-]#[N+]C(=C\c1ccc(O)cc1)/C(=C/c1ccc(OC)cc1)[N+]#[C-] [xanthocillin X monomethyl ether] | – | – | stimulated | no effect
